Test results as given in PMC8213057, “Targeting ALK2: An Open Science Approach to Developing Therapeutics for the Treatment of Diffuse Intrinsic Pontine Glioma” (Journal of Medicinal Chemistry, 2020).
Values joined by “and” are separate entries in the source; they are usually repeats but may differ in a detail not shown here. Identical values can stand only once.

How the values were obtained:
[1] = biological target: TLK2 (Homo sapiens, UniProt Q86UE8); conditions: 1 μM; Run 1, Run 2
[2] = tested on: TGFBR2
[3] = biological target: PAK5 (Homo sapiens, UniProt Q9P286); assay: biochemical; conditions: read-out: % enzyme activity, 1 μM; Run 1, Run 2
Sequence of PAK5 (Q9P286 whole entry): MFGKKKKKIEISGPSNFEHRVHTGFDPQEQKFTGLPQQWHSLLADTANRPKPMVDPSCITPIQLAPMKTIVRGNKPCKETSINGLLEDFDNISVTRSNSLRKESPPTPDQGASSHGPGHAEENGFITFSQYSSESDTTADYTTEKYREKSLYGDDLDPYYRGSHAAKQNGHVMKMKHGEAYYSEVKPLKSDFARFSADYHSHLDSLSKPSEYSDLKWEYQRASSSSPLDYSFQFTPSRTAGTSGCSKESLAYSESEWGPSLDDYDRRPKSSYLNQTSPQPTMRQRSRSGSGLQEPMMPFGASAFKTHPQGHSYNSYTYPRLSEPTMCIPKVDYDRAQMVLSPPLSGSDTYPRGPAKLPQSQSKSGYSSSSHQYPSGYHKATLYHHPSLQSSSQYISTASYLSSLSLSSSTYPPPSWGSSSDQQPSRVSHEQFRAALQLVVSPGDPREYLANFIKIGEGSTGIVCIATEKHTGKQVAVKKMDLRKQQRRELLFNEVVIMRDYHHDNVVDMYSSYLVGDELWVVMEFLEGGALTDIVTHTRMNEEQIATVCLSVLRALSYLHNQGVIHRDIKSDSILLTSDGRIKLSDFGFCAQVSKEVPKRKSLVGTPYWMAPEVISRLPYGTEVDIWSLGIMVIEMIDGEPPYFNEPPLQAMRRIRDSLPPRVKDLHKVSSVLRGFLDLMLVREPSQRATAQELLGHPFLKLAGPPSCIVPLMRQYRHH

[4] = biological target: T1, PKG1b (Homo sapiens, UniProt Q13976); conditions: 1 μM; Run 1, Run 2
T1 sequence (Q13976 1-686 isoform Q13976-2): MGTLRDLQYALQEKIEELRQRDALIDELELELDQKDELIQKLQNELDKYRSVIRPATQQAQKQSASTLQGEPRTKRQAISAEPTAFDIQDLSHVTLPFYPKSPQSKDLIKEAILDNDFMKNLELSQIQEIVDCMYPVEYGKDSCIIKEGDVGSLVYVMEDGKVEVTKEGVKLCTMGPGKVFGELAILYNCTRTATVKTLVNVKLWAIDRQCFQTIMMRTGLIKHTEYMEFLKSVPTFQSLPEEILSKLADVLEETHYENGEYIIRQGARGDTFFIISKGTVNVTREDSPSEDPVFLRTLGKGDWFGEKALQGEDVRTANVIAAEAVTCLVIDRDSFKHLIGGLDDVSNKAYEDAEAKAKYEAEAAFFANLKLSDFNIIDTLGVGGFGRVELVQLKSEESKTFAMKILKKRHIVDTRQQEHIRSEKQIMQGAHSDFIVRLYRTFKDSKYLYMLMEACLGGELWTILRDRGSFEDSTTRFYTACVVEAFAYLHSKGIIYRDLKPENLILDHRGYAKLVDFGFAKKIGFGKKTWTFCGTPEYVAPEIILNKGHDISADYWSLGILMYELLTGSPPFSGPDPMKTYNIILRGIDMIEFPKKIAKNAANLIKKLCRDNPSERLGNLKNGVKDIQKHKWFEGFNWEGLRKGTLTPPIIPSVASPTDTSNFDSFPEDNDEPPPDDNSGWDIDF

[5] = biological target: JNK1 (Homo sapiens, UniProt P45983); assay: biochemical; conditions: read-out: % enzyme activity, 1 μM; Run 1, Run 2
Sequence of JNK1 (P45983 whole entry): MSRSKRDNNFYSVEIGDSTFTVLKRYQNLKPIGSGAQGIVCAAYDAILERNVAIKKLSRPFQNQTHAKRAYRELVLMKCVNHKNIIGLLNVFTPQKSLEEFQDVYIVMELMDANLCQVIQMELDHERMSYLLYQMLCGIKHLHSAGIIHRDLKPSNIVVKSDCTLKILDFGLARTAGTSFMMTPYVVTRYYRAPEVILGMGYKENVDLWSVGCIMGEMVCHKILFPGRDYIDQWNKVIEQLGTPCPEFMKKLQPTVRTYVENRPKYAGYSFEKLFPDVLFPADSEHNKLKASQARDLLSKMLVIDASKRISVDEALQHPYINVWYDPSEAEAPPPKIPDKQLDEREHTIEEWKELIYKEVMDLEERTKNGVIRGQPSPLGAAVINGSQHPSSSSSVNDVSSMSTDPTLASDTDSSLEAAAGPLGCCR

[6] = biological target: T2, PKCiota (Homo sapiens, UniProt P41743); assay: biochemical; conditions: read-out: % enzyme activity, 1 μM; Run 1, Run 2
T2 sequence (P41743 1-596): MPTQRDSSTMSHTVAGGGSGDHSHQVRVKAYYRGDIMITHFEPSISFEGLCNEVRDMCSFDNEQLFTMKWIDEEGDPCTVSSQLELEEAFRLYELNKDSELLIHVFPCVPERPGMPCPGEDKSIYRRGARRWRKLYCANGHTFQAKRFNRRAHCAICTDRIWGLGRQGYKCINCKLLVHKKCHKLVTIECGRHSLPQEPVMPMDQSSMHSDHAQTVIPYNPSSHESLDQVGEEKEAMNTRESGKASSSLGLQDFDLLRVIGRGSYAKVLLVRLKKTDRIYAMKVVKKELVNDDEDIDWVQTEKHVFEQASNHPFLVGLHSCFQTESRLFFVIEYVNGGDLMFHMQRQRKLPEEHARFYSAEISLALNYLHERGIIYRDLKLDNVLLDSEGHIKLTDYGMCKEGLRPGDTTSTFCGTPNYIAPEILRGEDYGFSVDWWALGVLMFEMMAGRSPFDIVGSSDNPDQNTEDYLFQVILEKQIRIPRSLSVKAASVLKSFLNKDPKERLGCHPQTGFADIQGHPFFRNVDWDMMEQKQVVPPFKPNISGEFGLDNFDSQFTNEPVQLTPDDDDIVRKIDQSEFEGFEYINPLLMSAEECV

[7] = biological target: TRKC (Homo sapiens, UniProt Q16288); assay: biochemical; conditions: read-out: % enzyme activity, 1 μM; Run 1, Run 2
Sequence of TRKC (Q16288 32-839): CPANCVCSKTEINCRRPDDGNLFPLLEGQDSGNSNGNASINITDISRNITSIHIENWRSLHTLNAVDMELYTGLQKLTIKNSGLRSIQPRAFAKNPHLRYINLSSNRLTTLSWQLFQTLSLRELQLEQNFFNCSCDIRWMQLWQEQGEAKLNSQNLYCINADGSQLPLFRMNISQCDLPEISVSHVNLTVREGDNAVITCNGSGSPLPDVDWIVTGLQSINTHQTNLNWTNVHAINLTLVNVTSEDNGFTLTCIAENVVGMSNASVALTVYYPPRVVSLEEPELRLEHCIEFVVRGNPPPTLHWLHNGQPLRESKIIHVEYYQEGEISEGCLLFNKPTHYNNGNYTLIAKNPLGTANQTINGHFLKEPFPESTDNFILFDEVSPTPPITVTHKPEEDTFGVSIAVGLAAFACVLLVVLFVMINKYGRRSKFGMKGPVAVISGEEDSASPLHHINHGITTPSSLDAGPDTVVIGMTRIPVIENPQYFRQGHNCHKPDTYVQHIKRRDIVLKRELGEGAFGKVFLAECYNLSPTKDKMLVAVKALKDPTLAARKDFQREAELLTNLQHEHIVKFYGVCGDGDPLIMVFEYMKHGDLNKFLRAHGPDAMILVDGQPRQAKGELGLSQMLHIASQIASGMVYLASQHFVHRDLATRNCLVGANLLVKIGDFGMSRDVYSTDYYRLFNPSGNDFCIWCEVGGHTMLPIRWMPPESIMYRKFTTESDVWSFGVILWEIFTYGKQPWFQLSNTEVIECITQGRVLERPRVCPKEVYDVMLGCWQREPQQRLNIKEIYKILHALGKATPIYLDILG

[8] = biological target: CDK3/cyclin E (Homo sapiens, UniProt Q00526); assay: biochemical; conditions: read-out: % enzyme activity, 1 μM; Run 1, Run 2
Sequence of CDK3/cyclin E (Q00526 whole entry): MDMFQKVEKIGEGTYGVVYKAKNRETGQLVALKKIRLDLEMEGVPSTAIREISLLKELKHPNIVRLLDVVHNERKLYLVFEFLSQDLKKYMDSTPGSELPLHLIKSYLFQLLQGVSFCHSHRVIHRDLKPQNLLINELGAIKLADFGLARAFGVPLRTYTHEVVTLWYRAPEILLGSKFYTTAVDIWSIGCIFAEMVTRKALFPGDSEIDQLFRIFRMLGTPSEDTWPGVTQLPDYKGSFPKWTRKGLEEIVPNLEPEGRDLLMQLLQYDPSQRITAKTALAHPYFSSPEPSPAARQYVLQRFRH
Sequence of CDK3/cyclin E (P24864 whole entry, further chain): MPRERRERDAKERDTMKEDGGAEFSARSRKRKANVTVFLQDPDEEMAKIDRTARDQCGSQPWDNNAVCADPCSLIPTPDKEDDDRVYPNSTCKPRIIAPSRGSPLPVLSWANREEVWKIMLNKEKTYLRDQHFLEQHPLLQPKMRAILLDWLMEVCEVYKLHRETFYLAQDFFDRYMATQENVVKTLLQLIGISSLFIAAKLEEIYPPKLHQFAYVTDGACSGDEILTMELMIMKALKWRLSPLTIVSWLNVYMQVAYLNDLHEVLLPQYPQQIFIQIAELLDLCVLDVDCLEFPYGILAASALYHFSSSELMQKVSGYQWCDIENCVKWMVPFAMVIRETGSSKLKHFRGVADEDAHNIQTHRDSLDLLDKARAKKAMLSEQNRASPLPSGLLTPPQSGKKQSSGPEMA

[9] = biological target: T3, PKG2/PRKG2 (Homo sapiens, UniProt Q13237); assay: biochemical; conditions: read-out: % enzyme activity, 1 μM; Run 1, Run 2
T3 sequence (Q13237 1-762): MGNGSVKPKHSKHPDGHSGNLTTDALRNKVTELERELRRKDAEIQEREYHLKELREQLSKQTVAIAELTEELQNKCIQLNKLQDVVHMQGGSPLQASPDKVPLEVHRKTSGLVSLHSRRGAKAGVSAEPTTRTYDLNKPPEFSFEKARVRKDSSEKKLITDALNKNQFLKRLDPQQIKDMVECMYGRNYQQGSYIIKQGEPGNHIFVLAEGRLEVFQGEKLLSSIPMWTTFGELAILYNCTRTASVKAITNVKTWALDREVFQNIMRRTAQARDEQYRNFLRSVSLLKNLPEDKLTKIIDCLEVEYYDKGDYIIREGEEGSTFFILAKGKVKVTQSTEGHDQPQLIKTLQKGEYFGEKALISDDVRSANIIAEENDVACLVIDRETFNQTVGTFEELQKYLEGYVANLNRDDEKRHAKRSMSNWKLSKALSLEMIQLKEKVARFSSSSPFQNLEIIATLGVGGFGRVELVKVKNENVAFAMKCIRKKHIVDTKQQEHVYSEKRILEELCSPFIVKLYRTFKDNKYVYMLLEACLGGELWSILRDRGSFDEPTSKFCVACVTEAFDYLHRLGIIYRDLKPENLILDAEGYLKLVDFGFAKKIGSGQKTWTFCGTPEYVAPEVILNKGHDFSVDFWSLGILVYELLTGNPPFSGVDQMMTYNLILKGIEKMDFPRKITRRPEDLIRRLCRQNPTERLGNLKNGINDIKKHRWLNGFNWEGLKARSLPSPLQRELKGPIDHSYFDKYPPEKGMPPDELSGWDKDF

Sequence of TLK2 (Q86UE8 whole entry): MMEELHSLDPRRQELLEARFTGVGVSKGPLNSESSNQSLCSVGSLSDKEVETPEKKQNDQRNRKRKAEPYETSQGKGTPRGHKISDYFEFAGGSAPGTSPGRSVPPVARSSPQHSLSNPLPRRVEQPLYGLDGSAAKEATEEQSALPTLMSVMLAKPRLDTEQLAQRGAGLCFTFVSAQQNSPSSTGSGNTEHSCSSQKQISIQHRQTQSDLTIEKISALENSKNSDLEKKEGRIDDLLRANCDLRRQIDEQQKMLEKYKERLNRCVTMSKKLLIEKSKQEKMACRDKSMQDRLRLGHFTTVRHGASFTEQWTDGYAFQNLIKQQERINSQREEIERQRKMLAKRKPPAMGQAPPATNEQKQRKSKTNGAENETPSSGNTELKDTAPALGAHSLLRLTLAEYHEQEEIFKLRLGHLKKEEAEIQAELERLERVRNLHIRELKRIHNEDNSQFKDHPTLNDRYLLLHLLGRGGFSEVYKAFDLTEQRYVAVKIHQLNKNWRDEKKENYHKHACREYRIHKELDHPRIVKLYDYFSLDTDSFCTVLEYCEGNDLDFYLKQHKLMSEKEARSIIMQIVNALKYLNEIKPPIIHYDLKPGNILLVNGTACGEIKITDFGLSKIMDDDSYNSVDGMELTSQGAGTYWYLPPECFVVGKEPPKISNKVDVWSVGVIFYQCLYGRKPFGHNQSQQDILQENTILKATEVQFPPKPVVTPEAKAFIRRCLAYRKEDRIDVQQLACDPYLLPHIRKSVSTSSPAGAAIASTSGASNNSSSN

| SMILES | % enzyme activity [1] [%] | % enzyme activity at 1 μM [2] | remaining activity at 1 µM [3] [%] | % enzyme activity [4] [%] | remaining activity at 1 µM [5] [%] | remaining activity at 1 µM [6] [%] | remaining activity at 1 µM [7] [%] | remaining activity at 1 µM [8] [%] | remaining activity at 1 µM [9] [%] |
| --- | --- | --- | --- | --- | --- | --- | --- | --- | --- |
| COc1cc(-c2cncc(-c3ccc(N4CCN(C)CC4)cc3)c2C)cc(F)c1C(N)=O [Compound 26a, 2-Fluoro-6-methoxy-4-(4-methyl-5-(4-(4-methylpiperazin-1-yl)phenyl)pyridin-3-yl)benzamide] | 95.61 | 103% and 97.4% | 94.6 | 98.83 | 90.6 | 107 | 103 | 82.7 | 98.9 |
| COc1cc(-c2cncc(-c3ccc(N4C[C@@H](C)N(C)[C@@H](C)C4)cc3)c2C)cc(F)c1C(N)=O [Compound 26c, 2-Fluoro-6-methoxy-4-(4-methyl-5-(4-((3R,5S)-3,4,5-trimethylpiperazin-1-yl)phenyl)pyridin-3-yl)benzamide] | 89.84 | 106% and 105% | 97.3 | 96.31 | 86.9 | 99.1 | 99 | 78.7 | 98.5 |
